Measurements published in patent US5100890A, “Arylmethylazoles and their salts, agents which contain these compounds, and their use” (priority 1985, dated 1992).
Like-named read-outs stand apart in the source and are kept apart here.

Columns and labels:
[1] = system: stereotypes; assay: Test of the promotion of stereotypes in rats (Method 3); assay type: in vivo, rat (Wistar); conditions: for ED50: read-out: ED50, dose at which half the maximum possible number of points is reached (Method 3, rat)
Experimental: 3. Test of the promotion of stereotypes in rats
The tests were carried out on 130-140 g male Wistar rats. The stereotypes were assessed at 15 minute intervals during the first two hours after administration of the substance, and then at half-hourly intervals up to the 6th hour. The scale below was used. […]
The number of points were calculated as a total number per 6 hours, divided by the number of observations.
The ED50 dose is the dose at which half the maximum possible number of points (5 points multiplied by the number of observations) is reached.

[2] = system: tetrabenazine ptosis; assay: Effect on tetrabenazine ptosis (TBZ), rat (Method 1); assay type: in vivo, rat (Wistar); conditions: po, 0.5 h
Experimental: (§1) The appropriate amount of a homogenate of the particular substance in aqueous carboxymethylcellulose is fed to 6 male animals by means of a gavage one hour before treatment with tetrabenazine (40 mg/kg), intraperitoneally).
(§2) 1. Test of the effect on tetrabenazine ptosis (TBZ)
(§3) Test on mice (NMRI), male, weight 19-21 g, or on rats (Wistar), male, about 120 g body weight. Preparation administered orally, homogenized in 1% strength tylose, 1 hour before tetrabenzine, 40 mg/kg, administered subcutaneously (N=6/dose). During the test, 6 animals are present together in one container. To test for upper lid ptosis, the animals are placed individually on the table top. The extent of the ptosis (0-4 points) is assessed and is expressed as a percentage of the maximum score achievable. Evaluation is carried out 30 minutes after administration of tetrabenazine.

[3] = system: yohimbine toxicity; assay: Potentiation of the yohimbine toxicity in mice (Method 2); assay type: in vivo, mouse (NMRI); conditions: 1 hour before yohimbine hydrochloride 20 mg/kg s.c.; for LD50, potentiation of yohimbine toxicity (Method 2, mouse): oral, deaths after 18 hours
Experimental: The compounds I and their acid addition salts potentiate the toxicity of yohimbine in mice. Antidepressants of type I administered orally in a dose of 0.5 to 100 mg/kg increased the death rate for an otherwise non-fatal dose of yohimbine hydrochloride (20 mg/kg, administered subcutaneously).
2. Potentiation of the yohimbine toxicity in mice
The toxicity of yohimbine, a blocker of presynaptic alpha-receptors, is potentiated by antidepressants (literature: R. M. Quinton, Brit. J. Pharmac. 21, 55-56 (1963). Male mice, NMRI strain, 20-22 g, were arranged in test groups of n=10. The test preparation was suspended in 1% strength aqueous Tylose® slime and administered orally in a volume of 10 ml/kg. Control received only the vehicle.
After a pretreatment time of 1 hour, all animals received a dose of yohimbine hydrochloride, which dose, when administered alone, is non-toxic (20 mg/kg, administered subcutaneously). The dead animals were determined 18 hours after this treatment. (Calculation of the LD50 by probit analysis).

[4] = system: tetrabenazine ptosis; assay: Effect on tetrabenazine ptosis (TBZ), mouse (Method 1); assay type: in vivo, mouse (NMRI); conditions: po, 0.5 h
Experimental: as §1, §2, §3

[5] = Rattus norvegicus, read-out: ED50, 50% reduction in the degree of ptosis (Method 1, rat)
[6] = Mus musculus, read-out: ED50, 50% reduction in the degree of ptosis (Method 1, mouse)
[7] = read-out: ED50, 50% reduction in the degree of ptosis (Method 1), mouse, p.o., 1 hour before tetrabenazine 40 mg/kg

| SMILES | LD50, potentiation of yohimbine toxicity (Method 2, mouse) [3] [mg/kg] | ED50 [4, 6] [mg/kg] | ED50 ([1]; po, rat, p.o., 6 hours) [mg/kg] | also measured |
| --- | --- | --- | --- | --- |
| OC1(C(c2cccc(Cl)c2)n2ccnc2)C2CC3CC(C2)CC1C3 (racemic) [Example 25, (3-chlorophenyl)-(2-hydroxy-2-adamantyl)-(1-imidazolyl)-methane] | 4.4 | 0.79 | – | stereotypes (Method 3, rat), in words ([1]; rat, up to 300 mg/kg p.o.): no stereotypes; ED50 [2, 5]: 10 mg/kg |
| O=C(O)C(O)C(O)C(=O)O.OC1(C(c2cccc(Cl)c2)n2ccnc2)C2CC3CC(C2)CC1C3 (single isomer, unassigned; (+)) [Example 168a, (+)-(3-chlorophenyl)-(2-hydroxy-2-adamantyl)-(1-imidazolyl)-methane hydrogen tartrate] | 4.6 | 2.5 | – | ED50 ([1]; Rattus norvegicus, po, 6 h): 30 mg/kg; ED50 [2, 5]: 5.5 mg/kg |
| CC(C)(C)C(O)C(c1ccc(-c2ccccc2)cc1)n1ccnc1 (centres unmarked) [Example 4, 1-(4-Biphenyl)-3,3-dimethyl-1-(1-imidazolyl)-butan-2-ol] | 5.3 | – | > 30 | – |
| OC(C(c1cccc(Cl)c1)n1ccnc1)C12CC3CC(CC(C3)C1)C2 (centres unmarked) [Example 105, 1-(1-Adamantyl)-2-(3-chlorophenyl)-2-(1-imidazolyl)-ethanol] | 8.5 | – | > 30 | – |
| Cc1cccc(C(n2ccnc2)C2(O)C3CC4CC(C3)CC2C4)c1 (centres unmarked) [Example 106, (2-Hydroxy-2-adamantyl)-1-imidazolyl-(3-tolyl)-methane] | 7 | – | > 30 | ED50 [4, 7]: 1.5 mg/kg |
| COc1ccc(C(n2ccnc2)C2(O)C3CC4CC(C3)CC2C4)cc1OC (centres unmarked) [Example 120] | – | 3 | – | ED50 (Method 2, mouse) ([3]; p.o., given as ED50, 1080 min): 3 mg/kg |
| OC1(C(c2ccc3ccccc3c2)n2ccnc2)C2CC3CC(C2)CC1C3 (centres unmarked) [Example 126] | 3.2 | 3 | – | – |
| CN1Cc2c(N)cccc2C(c2ccccc2)C1 (centres unmarked) [Nomifensin, reference compound] | 8.6 | – | – | ED50 ([1]; Rattus norvegicus, 6 h): 11.9 mg/kg; ED50 ([2]; read-out: ED50, 50% reduction in the degree of ptosis (Method 1), rat, p.o., 1 hour before tetrabenazine 40 mg/kg): 2.7 mg/kg; ED50 [4, 7]: 0.72 mg/kg |
